Data on 3 molecules can be found in ChEMBL document CHEMBL1130663, “N-substituted octahydro-4a-(3-hydroxyphenyl)-10a-methyl-benzo[g]isoquinolines are opioid receptor pure antagonists” (Bioorg Med Chem Lett, 1998).

Assay [1] deals with T1, Mu-type opioid receptor (Cavia porcellus, UniProt P97266). The assay can be described thus: Compound was tested for the inhibition of [35S]GTP-gamma-S, binding in Guinea pig Caudate stimulated by the opioid receptor agonist Mu-DAMGO. The format is functional.
Assay [2] addresses Delta-type opioid receptor (Rattus norvegicus, UniProt P33533). Description: Binding affinity was determined as ability to displace [3H]DADLE radioligand from Opioid receptor delta 1.
For assay [3], the target named is T2, Kappa-type opioid receptor (Cavia porcellus, UniProt P41144). Description: Compound was tested for the inhibition of [35S]GTP-gamma-S, binding to Opioid receptor kappa 1. The format is functional.
Assay [4] deals with T2, Kappa-type opioid receptor. The assay can be described thus: Binding affinity was determined as ability to displace [3H]-U-69, radioligand from Opioid receptor kappa 1.
Assay [5] has as its target Mu-type opioid receptor (Rattus norvegicus, UniProt P33535). The assay can be described thus: Binding affinity was determined as ability to displace [3H]DAMGO radioligand from Mu opioid receptor.
Assay [6] addresses T2, Kappa-type opioid receptor. The assay can be described thus: Compound was tested for the inhibition of [35S]GTP-gamma-S, binding Opioid receptor kappa 1. The format is functional. For orientation: Binding of GTPγS marks nucleotide exchange on a G protein.
In assay [7] the target is T1, Mu-type opioid receptor. Description: Binding affinity was determined against Mu opioid receptor using [3H]-Naltrexone as radioligand.

T1 sequence (P97266 whole entry): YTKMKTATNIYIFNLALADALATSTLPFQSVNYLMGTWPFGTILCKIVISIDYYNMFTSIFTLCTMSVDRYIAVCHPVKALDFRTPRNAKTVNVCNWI
T2 sequence (P41144 whole entry): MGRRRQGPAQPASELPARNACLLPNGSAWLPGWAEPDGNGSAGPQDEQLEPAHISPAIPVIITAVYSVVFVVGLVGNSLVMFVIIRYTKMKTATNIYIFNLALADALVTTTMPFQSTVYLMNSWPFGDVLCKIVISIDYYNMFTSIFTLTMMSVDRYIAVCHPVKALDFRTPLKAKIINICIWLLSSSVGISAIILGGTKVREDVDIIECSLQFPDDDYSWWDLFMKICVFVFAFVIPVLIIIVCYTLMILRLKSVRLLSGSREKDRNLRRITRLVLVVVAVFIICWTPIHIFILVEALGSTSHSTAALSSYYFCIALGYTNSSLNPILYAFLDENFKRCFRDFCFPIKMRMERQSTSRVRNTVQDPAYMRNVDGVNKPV
Sequence of Delta-type opioid receptor (P33533 whole entry): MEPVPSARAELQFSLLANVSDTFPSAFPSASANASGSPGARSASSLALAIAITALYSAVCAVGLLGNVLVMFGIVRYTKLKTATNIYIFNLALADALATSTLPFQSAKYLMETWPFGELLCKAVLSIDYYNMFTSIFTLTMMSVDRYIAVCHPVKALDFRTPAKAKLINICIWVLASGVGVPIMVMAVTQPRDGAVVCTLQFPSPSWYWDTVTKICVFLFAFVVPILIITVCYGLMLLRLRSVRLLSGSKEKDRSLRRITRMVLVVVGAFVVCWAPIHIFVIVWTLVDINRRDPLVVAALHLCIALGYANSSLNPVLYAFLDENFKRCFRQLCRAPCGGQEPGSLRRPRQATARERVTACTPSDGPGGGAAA
Sequence of Mu-type opioid receptor (Rattus norvegicus, UniProt P33535) (P33535 whole entry): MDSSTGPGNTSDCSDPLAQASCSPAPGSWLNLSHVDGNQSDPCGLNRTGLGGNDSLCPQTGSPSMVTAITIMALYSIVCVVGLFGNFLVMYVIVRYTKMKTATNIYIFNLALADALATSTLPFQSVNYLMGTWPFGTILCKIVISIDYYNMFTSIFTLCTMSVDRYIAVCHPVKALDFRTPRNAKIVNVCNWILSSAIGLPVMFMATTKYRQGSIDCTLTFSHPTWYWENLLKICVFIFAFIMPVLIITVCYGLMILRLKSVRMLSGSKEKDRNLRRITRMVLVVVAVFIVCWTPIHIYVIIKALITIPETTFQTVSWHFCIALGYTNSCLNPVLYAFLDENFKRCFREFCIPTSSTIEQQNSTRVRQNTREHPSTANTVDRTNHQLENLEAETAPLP

One may read the Ki as the equilibrium dissociation constant of an inhibitor or competing ligand from its target. High values mean weaker binding, low ones tighter binding. In the case of `CN1CC[C@]2(c3cccc(O)c3)Cc3ccccc3C[C@]2(C)C1`, the Ki is 119 nM in assay [1]; over 5710 nM in assay [2]; 52.6 nM in assay [3]; 166 nM in assay [4]; 297 nM in assay [5].
In the case of `C[C@]12Cc3ccccc3C[C@@]1(c1cccc(O)c1)CCN(CCc1ccccc1)C2`, the Ki is 10 nM in assay [1]; 1270 nM in assay [2]; 6.61 nM in assay [6]; 9.8 nM in assay [4]; 11.2 nM in assay [5].
In assay [7], `C[C@H]1CN(C)CC[C@@]1(C)c1cccc(O)c1` showed a Ki of 80 nM.
